The values that follow come from US4139526A, “Somatostatin analogs” (Merck & Co., Inc., priority 1977, dated 1979).

Molecules are shown by their SMILES.

The subject of one assay is Rat pituicytes. The assay can be described thus: Growth hormone inhibition in vitro. Format: cell-based. The following applies: somatostatin = 1, 4 hours incubation, limits in parentheses. How it is done:
Rat pituicytes were isolated according to the procedures of Vale and Grant "In vitro Pituitary Hormone Secretion Assay for Hypophysiotropic Substances" in Methods in Enzymology. Vol. XXXVII, eds. O'Malley, B. W. and Hardman, J. G. (Academic Press, Inc., New York) pp. 5-93 (1975).
After 4 days in culture, the cells were washed and incubated for 4 hours in Dulbecco-modified Eagle's medium in the presence or absence of graded doses of each analog or somatostatin. The medium was then collected for subsequent growth hormone determination by a double antibody radioimmunoassay for rat growth hormone.
(§1) Doses were randomized between groups of animals (6 rats/group). Potency values were determined by four, six, or eight point bioassays with somatostatin as the reference standard. Relative potency values were calculated by a relative potency formula for parallel line bioassays as described in Finney, D. J. Statistical Method in Biological Assay (Charles Griffin and Co., Ltd., London) Chap. 4 pp. 99-138 (1964).

Another assay concerns plasma glucagon. The assay can be described thus: Inhibition of glucagon: lowering of portal vein plasma glucagon in anesthetized rats. As to conditions: somatostatin = 1; i.v. via external jugular vein, portal vein blood after 5 minutes; limits in parentheses. Format: in vivo, rats (male Sprague-Dawley). The protocol:
(§2) The relative potencies of somatostatin analogs on the lowering of plasma insulin and glucagon are determined by the following method:
(§3) Analogs of somatostatin were compared to somatostatin in their ability to lower the levels of portal vein glucagon and insulin in anesthetized rats. Male Sprague-Dawley rats (Charles River CD) weighing 160-200 grams were anesthetized with urethane (150 mg./100 gm.) Saline or peptides were administered via the external jugular vein. After 5 minutes the portal vein was exposed and blood was collected via syringes containing 3 mg. EDTA and placed in chilled tubes containing 100 μl. of Trasylol (obtained from FBA Pharmaceuticals) for subsequent hormone analysis. Plasma levels of glucagon were determined by the method of Faloona, G. R., and Unger, R. H. "Glucagon" in Methods of Hormone Radioimmunoassay, eds. […] Plasma levels of insulin were determined by a modification of the procedure of Herbert, V., Lau, K. S. Gottlieb, C. […]
(§4) Doses were randomized between groups of animals (6 rats/group). Potency values were determined by four, six, or eight point bioassays with somatostatin as the reference standard. Relative potency values were calculated by a relative potency formula for parallel line bioassays as described in Finney, D. J. Statistical Method in Biological Assay (Charles Griffin and Co., Ltd., London) Chap. […]

In the next assay the test system is plasma insulin. The assay can be described thus: Inhibition of insulin: lowering of portal vein plasma insulin in anesthetized rats. The class given is in vivo, rats (male Sprague-Dawley). The following applies: somatostatin = 1; i.v. via external jugular vein, portal vein blood after 5 minutes; limits in parentheses. The protocol: as §2, §3, §4
The test system of a further assay is growth hormone release. The experiment in a line: Inhibition of pentobarbital stimulated growth hormone release in vivo. Also on record: species or system rats. The following applies: somatostatin = 1; subcutaneous injection, blood after 15 minutes; limits in parentheses. The protocol:
Somatostatin analogs were compared to somatostatin in their ability to inhibit the release of growth hormone in pentobarbital stimulated rats; a modification of the procedure of Brazeau et al. Endocrinology, 94, 184-187 (1974) was employed. Rats were lightly etherized and sodium pentobarbital (17 mg./Kg. was injected into the exposed Saphenous vein; somatostatin or analog was simultaneously injected subcutaneously. After 15 minutes the animals were bled via the orbital sinus and blood collected for subsequent growth hormone analysis.
as §1

In assay [1] the test system is pentagastrin evoked gastric secretion. The experiment in a line: Pentagastrin evoked gastric secretion in chronic fistula beagle dogs. The class given is in vivo. As to conditions: 0.8 γ/kg./min. infused 0-60 min. How it is done:
The effect of somatostatin and its analogs on gastric secretion were determined by the following method:
Compounds were tested for their ability to inhibit pentagastrin evoked gastric secretion in the chronic fistula dog. Female beagle dogs with a chronic gastric fistula were given pentagastrin (2.5 μg./kg./hour, i.v. from -60 to 120 min.) and gastric outputs were collected via the fistula cannula. Samples were analyzed at 30 minute intervals for volume (ml.) and titratable acid (mEq/L) (titration […] with 0.01N NaOH); total acid output (mEq) was calculated as the product of output volume and acid concentration. Test compounds were infused at a constant rate from 0 to 60 minutes. Data have been expressed as percent change of total acid output relative to a placebo trial in the same animals.

As for `C[C@H](N)C(=O)NCC(=O)N[C@H]1CSSC[C@@H](C(=O)O)NC(=O)[C@H](CO)NC(=O)[C@H]([C@@H](C)O)NC(=O)[C@H](Cc2ccccc2)NC(=O)[C@H]([C@@H](C)O)NC(=O)[C@H](CCCCN)NC(=O)[C@H](Cc2c[nH]c3ccccc23)NC(=O)[C@H](Cc2ccccc2)NC(=O)[C@H](Cc2ccccc2)NC(=O)[C@H](CC(N)=O)NC(=O)[C@H](CCCCN)NC1=O` [(I), Somatostatin], the “Growth Hormone Inhibition In Vitro, potency relative to somatostatin” value in the assay with Rat pituicytes stood at 1. The “Inhibition of Glucagon, potency relative to somatostatin” value in the assay with plasma glucagon is 1. Also, the “Inhibition of Insulin, potency relative to somatostatin” value in the assay with plasma insulin was found to be 1. Further, the “Inhibition of Pentobarbital Stimulated Growth Hormone Release In Vivo, potency relative to somatostatin” value in the assay on growth hormone release is listed as 1. The “Titratable acid, percent change, during 0-30” value in assay [1] (sample 0-30 min, during treatment) was -16%. The “Total acid output, percent change, during 0-30” value in assay [1] (sample 0-30 min, during treatment, relative to placebo trial in the same animals) was -89%. Further, the “Titratable acid, percent change, during 30-60” value in assay [1] (sample 30-60 min, during treatment) is on record as -17%. The “Total acid output, percent change, during 30-60” value in assay [1] (sample 30-60 min, during treatment, relative to placebo trial in the same animals) was -99%. Moreover, the “Titratable acid, percent change, post-treat 60-90” value in assay [1] (sample 60-90 min, post-treatment) is given as -61%. Further, the “Total acid output, percent change, post-treat 60-90” value in assay [1] (sample 60-90 min, post-treatment, relative to placebo trial in the same animals) was -93%. Further, the “Titratable acid, percent change, post-treat 90-120” value in assay [1] (sample 90-120 min, post-treatment) is reported as -41%. For the same molecule, the “Total acid output, percent change, post-treat 90-120” value in assay [1] (sample 90-120 min, post-treatment, relative to placebo trial in the same animals) is -45%.
